This note sets out measurements from the supplement of paper PMC10307832.

What all share (assay): relative viability (nuclei count vs DMSO), 5 days (fraction); higher = more cells survive
Compound in the experiment “Sulindac + OSI-027”: CC1=C(CC(=O)O)c2cc(F)ccc2/C1=C\c1ccc([S+](C)[O-])cc1 [Sulindac] + COc1cccc2cc(-c3nc([C@H]4CC[C@H](C(=O)O)CC4)n4ncnc(N)c34)[nH]c12 [OSI-027] (partner 0.5 µM)
In short, it runs like this: (§1)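 Values are medians from duplicate plates. Each reflects relative viability, defined as the nuclei count of treated wells over that of vehicle wells. Lung cancer cell lines in 1536-well plates were pin-tool dosed one day after seeding with one drug alone or with a fixed anchor-drug dose plus five library-drug doses (not always all listed) in √10 steps, then fixed, stained and imaged at 4× after 5 days.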

Compound in experiment [1]: CN[C@@H]1C[C@H]2O[C@@](C)([C@@H]1OC)n1c3ccccc3c3c4c(c5c6ccccc6n2c5c31)C(=O)NC4 [Staurosporine] + CC(=O)Nc1cccc(-n2c(=O)n(C3CC3)c(=O)c3c(Nc4ccc(I)cc4F)n(C)c(=O)c(C)c32)c1 [Trametinib] (partner 0.02 µM)
Put shortly: as §1

Compound in experiment [2]: CN[C@@H]1C[C@H]2O[C@@](C)([C@@H]1OC)n1c3ccccc3c3c4c(c5c6ccccc6n2c5c31)C(=O)NC4 [Staurosporine] + CCNC(=O)c1noc(-c2cc(C(C)C)c(O)cc2O)c1-c1ccc(CN2CCOCC2)cc1 [Luminespib] (partner 0.01 µM)
In short, it runs like this: as §1

Compound in experiment [3]: O=c1[nH]cc(F)c(=O)[nH]1 [5-Fluorouracil] + CC1(C)CCC(c2ccc(Cl)cc2)=C(CN2CCN(c3ccc(C(=O)NS(=O)(=O)c4ccc(N[C@H](CCN5CCOCC5)CSc5ccccc5)c(S(=O)(=O)C(F)(F)F)c4)cc3)CC2)C1 [Navitoclax] (partner 0.5 µM)
Put shortly: as §1

UMC-11: the relative viability stood at 0.624 with Sulindac + OSI-027 (first compound 0.08 µM); 0.502 with Sulindac + OSI-027 (first compound 0.253 µM); 0.371 with Sulindac + OSI-027 (first compound 0.8 µM); 0.543 with Sulindac + OSI-027 (first compound 2.53 µM); 0.487 with Sulindac + OSI-027 (first compound 8 µM); 0.444 in experiment [1] (first compound 0.005 µM). The relative viability is 0.0989 in experiment [1] (first compound 0.01581 µM); 0.212 in experiment [1] (first compound 0.05 µM); 0.121 in experiment [1] (first compound 0.1581 µM); 0.0798 in experiment [1] (first compound 0.5 µM); 0.894 in experiment [2] (first compound 0.005 µM); 0.487 in experiment [2] (first compound 0.01581 µM). Moreover, the relative viability turned out to be 0.223 in experiment [2] (first compound 0.05 µM); 0.135 in experiment [2] (first compound 0.1581 µM); 0.0992 in experiment [2] (first compound 0.5 µM); 0.386 in experiment [3] (first compound 0.02 µM); 0.322 in experiment [3] (first compound 0.2 µM); 0.286 in experiment [3] (first compound 0.6325 µM). In experiment [3] (first compound 2 µM), the relative viability was 0.241.
